Assay results reported in patent publication US6340694B1, “Diarylbenzopyran derivatives as cyclooxygenase-2 inhibitors” (Pacific Corporation, priority 1998, dated 2002).

Tests used:
[1] = tested on: edema in mouse's foot induced by carrageenan; assay: Depressant action on edema in mouse's foot induced by carrageenan; format: in vivo, Male Sprague-Dawley rat; conditions: po; for inhibition in vivo at 50 mg/kg: 50 mg/kg p.o.; for inhibition in vivo at 30 mg/kg: 30 mg/kg p.o.
Description: (§1) Regarding the compounds in some of the above Examples and indomethacin, depressant action on edema in mouse's ear and depressant action on edema in mouse's foot being induced by carrageenan are being measured by the following 2 methods. And the results of the depressant action on edema in mouse's ear and depressant action on edema in mouse's foot being induced by carrageenan are shown in Table 5.
2. Measurement of Depressant Action on Edama in Mouse's Foot Induced by Carrageenan
At 1 hour after oral administering to Male-Sprague-Dawley-white mouse, weighing 150˜200 g, with a suspended solution of appropriate amount of sample in 0.5% of carboxymethyl cellulose and 0.2% of TWEN solution, edema on the right foot of mouse was induced by injecting 0.1 ml(1%) of carrageenan-saline solution. Right after the inducement of edema by carrageenan and 3 hours later, the edema rate was estimated by measuring white mouse's foot volume with Displacement Plethysmometer(Ugo Basile, Italy). Carrageenan injection Drug was administered 1 hour before the carrageenan injection. Depressant rate of edema is produced by the following equation 1.
% Depressant rate of edema=(1 ? Vtreated group/ ? Vcontrol group)×100 ? V: change of foot volume [Equation 1]

COX-1 = target: T1, COX-1 (Mus musculus, UniProt P22437); assay: Evaluation of COX-1's inhibition efficacy (macrophages without aspirin and LPS pre-treatment); format: cell-based, C57BL/6 mouse; conditions: for inhibition at 10 µg/mL: 10 μg/ml
T1 construct: there is no pre-treatment of aspirin and LPS in the adhesion of macrophage; endogenous in cells; host or cells: peritoneal macrophages of C57BL/6 mouse, without aspirin and LPS pre-treatment
T1 sequence (P22437 27-602): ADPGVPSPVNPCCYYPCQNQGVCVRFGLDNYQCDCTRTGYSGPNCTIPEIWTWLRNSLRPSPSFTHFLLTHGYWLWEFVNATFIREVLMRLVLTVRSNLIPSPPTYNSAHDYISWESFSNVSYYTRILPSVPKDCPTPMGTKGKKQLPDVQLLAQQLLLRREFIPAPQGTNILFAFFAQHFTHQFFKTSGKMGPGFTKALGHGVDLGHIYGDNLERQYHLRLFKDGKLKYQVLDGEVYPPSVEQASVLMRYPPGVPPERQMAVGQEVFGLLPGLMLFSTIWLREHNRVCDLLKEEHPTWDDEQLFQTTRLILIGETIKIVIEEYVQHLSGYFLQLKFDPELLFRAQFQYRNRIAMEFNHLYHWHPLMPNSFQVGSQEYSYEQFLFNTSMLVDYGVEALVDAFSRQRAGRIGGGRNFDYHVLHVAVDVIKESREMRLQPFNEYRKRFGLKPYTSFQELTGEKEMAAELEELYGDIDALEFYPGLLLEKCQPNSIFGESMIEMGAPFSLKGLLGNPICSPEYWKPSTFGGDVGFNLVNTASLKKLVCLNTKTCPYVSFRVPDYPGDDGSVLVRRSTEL
Summary of the method: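 C57BL/6 mouse peritoneal macrophages (1×10^6 cells/mL) were adhered for 2 h at 37° C without aspirin or LPS pretreatment. Compound was given for 10 min at 37° C, then arachidonic acid (10 μM final) for 10 min. Supernatant PGE2 was measured by radioimmunoassay, with 100% activity set as PGE2 with versus without arachidonic acid.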

edema in mouse's ear = assay: Depressant action on edema in mouse's ear (TPA-induced, myeloperoxidase); format: in vivo, ICR mouse; conditions: topical on ear, TPA 25 μg, 5 hours
Description: as §1
1. Measurement of Depressant Action on Edama in Mouse's Ear
At 30 minutes after coating the left ear of ICR mouse, weighing 20 g, with a solution of appropriate amount of sample in 20 μl of mixed solvent DMSO:acetone(1:9), 25 μg of TPA(tetradecanoylphorbol acetate) was coated on both ears. The determination of depressant action on edama was made in 5 hours later by the number of neutral granulocyte gathering in the ear after inducing TPA inflammation. The number of neutral granulocyte was estimated by measuring the activation of myeloperoxidase.

COX-2 = target: T2, COX-2 (Mus musculus, UniProt Q05769); assay: Evaluation of COX-2's inhibition efficacy (PGE2 radioimmuno assay, LPS-induced, aspirin-pretreated peritoneal macrophages); format: cell-based, C57BL/6 mouse; conditions: for inhibition at 0.1 µg/mL: 0.1 μg/ml; for inhibition at 1 µg/mL: 1 μg/ml; for inhibition at 10 µg/mL: 10 μg/ml
T2 construct: endogenous in cells; host or cells: peritoneal macrophages of C57BL/6 mouse, aspirin-pretreated, LPS-induced
T2 sequence (Q05769 18-604): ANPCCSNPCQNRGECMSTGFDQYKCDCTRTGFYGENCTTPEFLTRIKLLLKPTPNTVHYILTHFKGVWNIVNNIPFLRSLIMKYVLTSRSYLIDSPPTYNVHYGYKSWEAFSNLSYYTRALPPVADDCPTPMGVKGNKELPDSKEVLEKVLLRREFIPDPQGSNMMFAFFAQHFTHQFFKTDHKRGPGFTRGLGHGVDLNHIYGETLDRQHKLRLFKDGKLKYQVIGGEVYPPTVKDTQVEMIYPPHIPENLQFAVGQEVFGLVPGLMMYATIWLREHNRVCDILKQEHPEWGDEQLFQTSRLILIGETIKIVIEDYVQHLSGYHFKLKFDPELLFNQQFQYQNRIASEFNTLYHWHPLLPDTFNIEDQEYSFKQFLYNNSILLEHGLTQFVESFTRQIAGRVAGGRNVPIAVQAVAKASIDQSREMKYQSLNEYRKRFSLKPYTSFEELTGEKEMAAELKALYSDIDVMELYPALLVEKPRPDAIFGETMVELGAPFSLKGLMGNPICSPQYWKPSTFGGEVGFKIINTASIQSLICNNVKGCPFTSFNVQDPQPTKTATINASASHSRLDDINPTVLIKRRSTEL
Summary of the method: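 C57BL/6 mouse peritoneal macrophages, adhered 2 h at 37 °C, were LPS-stimulated to induce COX-2. Cells were then treated 10 min with compound, followed by 10 min with 10 μM arachidonic acid (final). PGE2 in the supernatant was quantified by radioimmunoassay.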

[2] = 3 h, read-out: depressant rate of edema rate induced by carrageenan (oral administration), % depression

inhibition at 10 µg/mL (COX-1) | inhibition at 0.1 µg/mL (COX-2) | inhibition at 1 µg/mL (COX-2) | inhibition at 10 µg/mL (COX-2) | melting point | inhibition at 1 µg/mL (COX-1; 1 μg/ml) | Structure (SMILES) | inhibition in vivo at 50 mg/kg [1, 2] | depressant rate of ear edema, ED50 (edema in mouse's ear) | inhibition in vivo at 30 mg/kg [1, 2] | inhibition in vivo at 3 mg/kg ([1]; 3 h, 3 mg/kg p.o., read-out: depressant rate of edema rate induced by carrageenan (oral administration), % depression) | ED50 ([1]; 3 hours after carrageenan, read-out: depressant rate of edema rate induced by carrageenan (oral administration), ED50)
< 5% | 94% | 100% | – | – | – | CS(=O)(=O)c1ccc(-c2oc3ccccc3c(=O)c2-c2ccc(F)cc2)cc1 [Example 1, 3-(4-Fluorophenyl)-2-(4-(methylsulfonyl)phenyl)-4H-1-benzo-pyran-4-one] | 43% | 0.4 mg/ear, ED50 | – | – | –
– | 13% | 61% | 72% | 225 °C | – | Cc1ccc(-c2c(-c3ccc(S(C)(=O)=O)cc3)oc3ccccc3c2=O)cc1 [Example 3, 3-(4-Methylphenyl)-2-(4-(methylsulfonyl)phenyl)-4H-1-benzopyran-4-one] | 52% | 1.2 mg/ear, ED50 | – | – | –
< 5% | 14% | 67% | 86% | 212 to 213 °C | – | COc1ccc(-c2c(-c3ccc(S(C)(=O)=O)cc3)oc3ccccc3c2=O)cc1 [Example 10, 3-(4-Methoxyphenyl)-2-(4-(methylsulfonyl)phenyl)-4H-1-benzopyran-4-one] | – | 0.6 mg/ear, ED50 | – | – | –
< 5% | 46% | 89% | – | 164 to 165 °C | – | CS(=O)(=O)c1ccc(-c2oc3ccccc3c(=O)c2-c2ccc(Cl)c(Cl)c2)cc1 [Example 11, 3-(3,4-Dichlorophenyl)-2-(4-(methylsulfonyl)phenyl)-4H-1-benzopyran-4-one] | – | – | 17% | – | –
– | – | – | – | – | – | CS(=O)(=O)c1ccc(-c2oc3ccccc3c(=O)c2-c2ccccc2F)cc1 [Example 12, 3-(2-Fluorophenyl)-2-(4-(methylsulfonyl)phenyl)-4H-1-benzopyran-4-one] | – | 0.4 mg/ear, ED50 | 20% | – | –
13% | – | 83% | 90% | 220 to 221 °C | – | CS(=O)(=O)c1ccc(-c2oc3ccccc3c(=O)c2-c2cccnc2)cc1 [Example 15, 2-(4-(Methylsulfonyl)phenyl)-3-(3-pyridinyl)-4H-1-benzopyran-4-one] | – | – | 41% | – | –
– | – | – | – | – | – | CS(=O)(=O)c1ccc(-c2oc3ccccc3c(=O)c2-c2ccc(F)c(Cl)c2)cc1 [Example 26, 3-(3-Chloro-4-fluorophenyl)-2-(4-(methylsulfonyl)phenyl)-4H-1-benzopyran-4-one] | 23% | 0.6 mg/ear, ED50 | – | – | –
– | – | – | – | – | – | CS(=O)(=O)c1ccc(-c2oc3ccccc3c(=O)c2-c2ccc(Br)cc2)cc1 [Example 28, 3-(4-Bromophenyl)-2-(4-(methylsulfonyl)phenyl)-4H-1-benzopyran-4-one] | – | 0.8 mg/ear, ED50 | – | – | –
12% | – | 66% | 78% | – | – | CS(=O)(=O)c1ccc(-c2oc3ccc(F)cc3c(=O)c2-c2cccnc2)cc1 [Example 34, 6-Fluoro-2-(4-(methylsulfonyl)phenyl)-3-(3-pyridinyl)-4H-1-benzopyran-4-one] | – | – | – | 23% | –
< 5% | 56% | 80% | 100% | – | – | CS(=O)(=O)c1ccc(-c2oc3ccccc3c(=S)c2-c2ccc(F)cc2)cc1 [Example 36, 3-(4-Fluorophenyl)-2-(4-(methylsulfonyl)phenyl)-4H-1-benzopyran-4-thione] | – | 1.0 mg/ear, ED50 | 20% | – | –
< 5% | 47% | 76% | 88% | 204 to 206 °C | – | CS(=O)(=O)c1ccc(-c2oc3ccccc3c(=S)c2-c2ccccc2)cc1 [Example 37, 2-(4-(Methylsulfonyl)phenyl)-3-phenyl-4H-1-benzopyran-4-thione] | – | – | 16% | – | –
75% | 48% | 96% | – | 215 to 217 °C | – | NS(=O)(=O)c1ccc(-c2oc3ccccc3c(=O)c2-c2ccc(Cl)c(Cl)c2)cc1 [Example 57, 2-(4-(Aminosulfonyl)phenyl)-3-(3,4-dichlorophenyl)-4H-1-benzopyran-4-one] | – | – | – | – | –
60% | – | 63% | 96% | 215 to 217 °C | 34% | NS(=O)(=O)c1ccc(-c2oc3ccccc3c(=O)c2-c2ccccc2F)cc1 [Example 58, 2-(4-(Aminosulfonyl)phenyl)-3-(2-fluorophenyl)-4H-1-benzopyran-4-one] | – | – | – | – | –
– | – | – | – | – | – | COc1ccc2c(c1)c(CC(=O)O)c(C)n2C(=O)c1ccc(Cl)cc1 [indomethacine, reference compound] | – | 0.4 mg/ear, ED50 | – | – | 4.3 mg/kg
